From patent publication US20240316051A1, “A PHARMACEUTICAL COMBINATION AND USE THEREOF” (Ascentage Pharma (Suzhou) Co., Ltd., priority 2021, published 2024)

Test system: 22RV1 prostate xenograft
Test: Subcutaneous 22RV1 prostate xenograft model (Example 24)
Assay type: in vivo, mice
Experimental: A subcutaneous xenograft tumor model of human tumor immunodeficient mice was established by cell inoculation: tumor cells in logarithmic growth phase were collected, counted, resuspended in 1×PBS, and the cell suspension concentration was adjusted to 2.5-5×10^7/mL. The tumor cells were inoculated subcutaneously in the right side of immunodeficient mice with a 1 ml syringe ([…]), 5-10×10^6/0.2 mL/mouse. All animal experiments were strictly in accordance with the specifications for the use and management of experimental animals in GenePharma Co., Ltd. and Suzhou Ascentage Pharma Co., Ltd. The calculation of relevant parameters refers to the Chinese NMPA “Guidelines for Non-Clinical Research Techniques of Cytotoxic Anti-tumor Drugs”.
Animal body weight and tumor size were measured twice weekly during the experiment. The state of the animal and the presence or absence of death were observed every day. The growth of tumor and the effects of treatment on normal behavior of animals were monitored routinely, specifically involving experimental animal activity, feeding and drinking, weight gain or loss, eyes, clothing hair and other abnormalities. The deaths and clinical symptoms observed during the experiment were recorded in the raw data. All operations for administration and measurement of mouse body weight and tumor volume were performed in a clean bench. According to the requirements of the experimental protocol, after the end of the last administration, plasma and tumor tissues were collected, weighed and photographed. The plasma and tumor samples were frozen at −80° C. for ready-to-use.
Tumor volume (TV) is calculated as: TV=a×b^2/2, wherein a and b represent the length and width of the tumor to be measured, respectively.
The relative tumor volume (RTV) is calculated as: RTV=Vt/V1, wherein V1 is the tumor volume at the start of grouping and administration, and Vt is the tumor volume measured on the t day after administration.
The evaluation index of anti-tumor activity is the relative tumor proliferation rate T/C (%), and the calculation formula thereof is: relative tumor proliferation rate T/C (%)=(TRTV/CRTV)×100%, TRTV is the RTV of treatment group, CRTV is the RTV of solvent control group.
Change of body weight (%)=(measured body weight-body weight at the start of grouping)/body weight at the start of grouping×100%.
A dose of drug is considered to be severely toxic if the body weight of mouse is reduced by more than 20% or the number of drug-related deaths exceeds 20%.
According to the description by Clarke R., Issues in experimental design and endpoint analysis in the study of experimental cytotoxic agents in vivo in breast cancer and other models [J]. Breast Cancer Research & Treatment, 1997, 46(2-3): 255-278, synergy analysis was evaluated using the following formula: synergy factor=((A/C)×(B/C))/(AB/C); A=RTV value of drug A alone group; B=RTV value of drug B alone group; C=RTV value of the solvent control group, and AB=RTV value of the A and B combination group.
In this experiment, subcutaneous 22RV1 prostate xenograft model was established to evaluate the anti-tumor effect of Compound 73 in combination with Compound C. The dosing regimen was as follows: • Compound C: 100 mg/kg, orally, every other day, for a total of 28 days; • Compound 73: 100 mg/kg, orally, once per day, for a total of 28 days;
The dosing regimen of each drug in the dosing regimen for the combination is the same as the dosing regimen for the single drug, for a total of 28 days.

Compound: CC(C)N1Cc2cc(C(F)(F)F)ncc2-c2cnc(NCc3c(F)ccc4c3CCO4)n3cnc(c23)C1=O [Compound 73, 12-(((5-fluoro-2,3-dihydrobenzofuran-4-yl)methyl)amino)-4-isopropyl-7-(trifluoromethyl)-4,5-dihydro-3H-2,4,8,11,12a-pentaazabenzo[4,5]cycloocta[1,2,3-cd]inden-3-one]
- RTV@ D 26 (22RV1 xenograft, day 26, Compound 73 100 mg/kg orally once per day, Compound C 50 mg/kg (table) orally every other day): 7.91 ± 0.74
- T/C(%) @ D 26 (22RV1 xenograft, day 26, Compound 73 100 mg/kg, Compound C 50 mg/kg (table)): 49.89%
- RTV@ D 29 (22RV1 xenograft, day 29): 9.28 ± 0.61
- RTV@ D 32 (22RV1 xenograft, day 32): 11.53 ± 0.68
- T/C value (day 26, Compound C 100 mg/kg orally every other day, Compound 73 100 mg/kg orally once per day, alone or combined): 49.89%
